Assay results reported in PubChem BioAssay (NCI).
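Step 1: Grow cells in 96-well plates. Step 2: Expose to compound for 48 hours at 5 concentrations. Step 3: Interpolate endpoints linearly; if unreached, use highest concentration. GI50 = concentration required for 50% inhibition of growth. TGI: concentration producing complete growth inhibition.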

Key:
Assay in all cases: NCI-60 cell line screen, 48 h
[1] = test system: SR leukemia
[2] = test system: T-47D breast
[3] = test system: SK-MEL-28 melanoma
[4] = test system: MDA-MB-435
[5] = test system: UACC-62 melanoma
[6] = test system: DU-145 prostate
[7] = test system: KM12 colon
[8] = test system: HS 578T breast
[9] = test system: UO-31 renal
[10] = test system: HOP-92 NSCLC
[11] = test system: U251 CNS
[12] = test system: BT-549 breast
[13] = test system: OVCAR-5 ovarian
[14] = test system: LOX IMVI melanoma
[15] = test system: CCRF-CEM leukemia
[16] = test system: SN12C renal
[17] = test system: HCT-116 colon
[18] = test system: MALME-3M melanoma
[19] = test system: CAKI-1 renal
[20] = test system: NCI-H23 lung
[21] = test system: SW-620 colon
[22] = test system: PC-3 prostate
[23] = test system: MCF7 breast
[24] = test system: HCC-2998 colon
[25] = test system: RPMI-8226 leukemia
[26] = test system: ACHN renal
[27] = test system: HL-60(TB) leukemia
[28] = test system: SF-268 CNS
[29] = test system: SNB-75 CNS
[30] = test system: MOLT-4 leukemia
[31] = test system: NCI/ADR-RES ovarian
[32] = test system: NCI-H460 lung
[33] = test system: HCT-15 colon
[34] = test system: HT29 colon
[35] = test system: TK-10 renal
[36] = test system: OVCAR-8 ovarian
[37] = test system: RXF 393 renal
[38] = test system: NCI-H226 lung
[39] = test system: SK-MEL-5 melanoma
[40] = test system: OVCAR-3 ovarian
[41] = test system: OVCAR-4 ovarian
[42] = test system: A498 renal
[43] = test system: SK-MEL-2 melanoma
[44] = test system: SF-295 CNS
[45] = test system: A549 NSCLC
[46] = test system: HOP-62 NSCLC
[47] = test system: NCI-H522 lung
[48] = test system: UACC-257 melanoma
[49] = test system: SNB-19 CNS
[50] = test system: IGROV1 ovarian
[51] = test system: K-562 leukemia
[52] = test system: SK-OV-3 ovarian
[53] = test system: COLO 205 colon
[54] = test system: 786-0 renal

## COc1cc(Nc2cc(C)nc(N3CCN(c4ccnc5cc(Cl)ccc45)CC3)n2)cc(OC)c1
[1]
  GI50: 169 nM
  TGI: 3300 nM
[2]
  GI50: 2360 nM
  TGI: > 100000 nM
[3]
  GI50: 99.3 nM
  TGI: > 100000 nM
[4]
  GI50: 30.6 nM
  TGI: 105 nM
[5]
  GI50: 95.5 nM
  TGI: > 71700 nM
[6]
  GI50: 318 nM
[7]
  GI50: 32.3 nM
  TGI: 4730 nM
[8]
  GI50: 176 nM
  TGI: > 100000 nM
[9]
  GI50: 139 nM
  TGI: > 100000 nM
[10]
  GI50: 97.3 nM
  TGI: 4680 nM
[11]
  GI50: 268 nM
  TGI: > 100000 nM
[12]
  GI50: 498 nM
  TGI: 6610 nM
[13]
  GI50: 487 nM
  TGI: > 100000 nM
[14]
  GI50: 133 nM
  TGI: 2820 nM
[15]
  GI50: 268 nM
  TGI: > 100000 nM
[16]
  GI50: 309 nM
  TGI: > 100000 nM
[17]
  GI50: 103 nM
  TGI: 5450 nM
[18]
  GI50: 5080 nM
  TGI: > 100000 nM
[19]
  GI50: 198 nM
  TGI: > 100000 nM
[20]
  GI50: 302 nM
  TGI: > 100000 nM
[21]
  GI50: 146 nM
  TGI: > 100000 nM
[22]
  GI50: 245 nM
  TGI: > 100000 nM
[23]
  GI50: 32.4 nM
  TGI: > 100000 nM
[24]
  GI50: 222 nM
  TGI: 4220 nM
[25]
  GI50: 313 nM
  TGI: 3510 nM
[26]
  GI50: 72.7 nM
  TGI: > 100000 nM
[27]
  GI50: 240 nM
  TGI: 20800 nM
[28]
  GI50: 377 nM
  TGI: > 100000 nM
[29]
  GI50: 142 nM
  TGI: 1060 nM
[30]
  GI50: 400 nM
  TGI: > 40900 nM
[31]
  GI50: 155 nM
  TGI: 1240 nM
[32]
  GI50: 180 nM
  TGI: > 32300 nM
[33]
  GI50: 56.1 nM
  TGI: > 100000 nM
[34]
  GI50: 266 nM
  TGI: 2080 nM
[35]
  GI50: 538 nM
  TGI: 41300 nM
[36]
  GI50: 337 nM
  TGI: > 79100 nM
[37]
  GI50: 35.4 nM
  TGI: 286 nM
[38]
  GI50: 362 nM
[39]
  GI50: 77.8 nM
  TGI: 351 nM
[40]
  GI50: 66.2 nM
  TGI: 437 nM
[41]
  GI50: 128 nM
  TGI: > 100000 nM
[42]
  GI50: 84.2 nM
  TGI: 658 nM
[43]
  GI50: 186 nM
  TGI: > 100000 nM
[44]
  GI50: 49.6 nM
  TGI: 439 nM
[45]
  GI50: 227 nM
  TGI: > 39700 nM
[46]
  GI50: 194 nM
  TGI: 14300 nM
[47]
  GI50: 50.1 nM
  TGI: 651 nM
[48]
  GI50: 907 nM
  TGI: > 100000 nM
[49]
  GI50: 318 nM
  TGI: > 100000 nM
[50]
  GI50: 267 nM
  TGI: > 100000 nM
[51]
  GI50: 108 nM
  TGI: > 61900 nM
[52]
  GI50: 253 nM
  TGI: > 78900 nM
[53]
  GI50: 202 nM
  TGI: 537 nM
[54]
  GI50: 153 nM
  TGI: 5820 nM
